In US5338725A, “Anti-aggregatory agents for platelets” (The Research Foundation of the State University of New York, priority 1992, dated 1994):
Starred links: 1 amine or outer side, 2 acyl side, 3 side chain; linkers in the order of their positions; H or OH if unused. Positions of bridges follow the written chain, without caps; N, C: chain ends. Non-standard residues stand in square brackets, D forms with d. Residues, ends and D or L forms follow the SMILES beside them. Chains are numbered I, II in the order given. X1 = NC(=O)c1cc(N[*:1])cc(N[*:2])c1; Adipoyl = O=C(CCCCC(=O)[*:2])[*:1]; Glutaryl = O=C(CCCC(=O)[*:2])[*:1]; 3Abz = Nc1cccc(C(=O)O)c1; 4Abz = Nc1ccc(C(=O)O)cc1; 2Abz = Nc1ccccc1C(=O)O

Target: human platelet-rich plasma (Homo sapiens, UniProt P05106+P08514)
Test: In vitro inhibition of ADP-induced aggregation of human platelet-rich plasma (Coller assay)
Format: cell-based
Settings: adjusted for fibrinogen concentration (ca. 30 times lower than Coller assay value; 0.1 mg/mL fibrinogen)
Experimental: 1. In vitro Inhibition of Aggregation of Human Platelet-Rich Plasma
Whole blood (10 ml) was collected from human volunteers and anticoagulated by addition of […] of 40% sodium citrate. Platelet-rich plasma (PRP) was prepared by low speed centrifugation (700 G for 3.5 min at 22° C.). The PRP was removed and the remaining blood was centrifuged at 2000 G for 10 min at 22 ° C. to obtain platelet poor plasma (PPP). The PRP was diluted with PPP to give a final platelet count of 300 000μL with a Coulter Acounter Model ZM (Coulter, Hialeah, Fla.). This diluted PRP (400μL) was placed in a siliconized glass cuvette equipped with a magnetic stirrer and stirred at 1200 rpm at 37° C. Various concentrations of the peptides (36μL) in TRIS buffer (0.01 M TRIS, 0.15 M NaCl, and 0.05% sodium azide, pH 7.4) was added and incubated for 3 rain before platelet aggregation was induced by addition of 54μL of 100μM ADP in HEPES buffer (0.01 M HEPES and 0.15 M NaCl, pH 7.5). The platelet aggregation was determined by a change in light transmission through the PRP on a Lumi Aggregometer 400rS (ChronoLog, Hayertown, PA). The ability of the peptides to inhibit platelet aggregation was evaluated and the IC50 was determined as the concentration of peptide required to produce 50% inhibition of the response to ADP in the presence of the TRIS buffer.
The assay system developed by Coller, which is used throughout the experiment, is different from conventional assay systems in certain aspects. First, the platelets used by Plow et al., Blood, 70, 110 (1987); and Garsky et al., Proc. Natl. Acad. Sci. U.S.A., 86, 4022 (1989) are gel-filtered to remove plasma proteins. Since the gel-filtration treatment may decrease the reactivity of the platelets, our assay avoids this step. The platelet count is adjusted by simply mixing PRP and PPP, which minimizes alterations of the platelets. Second, fibrinogen concentration in the Coller system is different from that of others. As shown in the experimental description of the assay, PRP was obtained from fresh blood and used immediately without further manipulation except for count adjustment. According to measurements obtained using this assay, such plasma contains ca. 3 mg of fibrinogen per 1 mL of plasma. On the other hand, fibrinogen concentration used in the Garsky and Plow assay system is 0.1 mg/mL. The concentration of fibrinogen affects the amount of RGD peptide required to inhibit platelet aggregation, with higher fibrinogen concentrations resulting in higher IC50 values. If there is a linear relationship between these two parameters, the IC50 values obtained from the Coller assay should be ca. 30 times larger than those obtained from the Plow et al. assay or the Garsky et al. assay. The adjusted IC50 values are presented in column 4 of Table showing the inhibitory activities of RGD peptides.
The following peptides were synthesized, and their amino acid contents were analyzed as described in procedures 3-7, above. In addition, their ability to inhibit aggregation of human platelet rich plasma was assessed as described in procedures 1 and 2, above. Their respective IC50 values, as well as their estimated IC50 adjusted to the values according the method of Plow et al., (vide supra) are listed in Table 1.

Sequence of human platelet-rich plasma (P08514 32-1039): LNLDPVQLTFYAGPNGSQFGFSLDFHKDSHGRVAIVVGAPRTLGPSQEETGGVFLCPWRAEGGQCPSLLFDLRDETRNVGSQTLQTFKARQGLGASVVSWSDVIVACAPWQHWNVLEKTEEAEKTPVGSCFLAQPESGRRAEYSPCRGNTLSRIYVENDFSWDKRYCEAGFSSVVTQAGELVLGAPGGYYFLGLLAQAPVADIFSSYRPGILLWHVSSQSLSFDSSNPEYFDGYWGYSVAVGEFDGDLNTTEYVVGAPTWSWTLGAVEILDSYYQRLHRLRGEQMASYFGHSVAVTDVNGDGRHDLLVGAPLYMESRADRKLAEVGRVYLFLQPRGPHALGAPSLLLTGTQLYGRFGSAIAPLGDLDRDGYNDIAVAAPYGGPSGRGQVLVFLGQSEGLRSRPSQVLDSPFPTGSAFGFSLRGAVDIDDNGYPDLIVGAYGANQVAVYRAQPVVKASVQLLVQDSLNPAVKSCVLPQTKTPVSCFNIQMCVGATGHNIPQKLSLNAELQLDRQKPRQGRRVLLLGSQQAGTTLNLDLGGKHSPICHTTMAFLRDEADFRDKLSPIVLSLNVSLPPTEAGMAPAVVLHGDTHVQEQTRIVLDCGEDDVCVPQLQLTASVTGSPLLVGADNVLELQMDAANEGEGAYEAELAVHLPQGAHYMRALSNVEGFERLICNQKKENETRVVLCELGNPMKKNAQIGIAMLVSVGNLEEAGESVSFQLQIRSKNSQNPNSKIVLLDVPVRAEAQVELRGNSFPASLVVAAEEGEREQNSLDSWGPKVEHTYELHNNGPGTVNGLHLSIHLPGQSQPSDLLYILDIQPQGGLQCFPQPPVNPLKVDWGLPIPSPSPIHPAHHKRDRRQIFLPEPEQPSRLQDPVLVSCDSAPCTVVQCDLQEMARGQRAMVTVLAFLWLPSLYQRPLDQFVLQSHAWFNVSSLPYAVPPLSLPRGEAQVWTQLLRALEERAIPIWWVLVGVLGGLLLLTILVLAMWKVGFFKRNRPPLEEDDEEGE
Sequence of human platelet-rich plasma (P05106 27-788): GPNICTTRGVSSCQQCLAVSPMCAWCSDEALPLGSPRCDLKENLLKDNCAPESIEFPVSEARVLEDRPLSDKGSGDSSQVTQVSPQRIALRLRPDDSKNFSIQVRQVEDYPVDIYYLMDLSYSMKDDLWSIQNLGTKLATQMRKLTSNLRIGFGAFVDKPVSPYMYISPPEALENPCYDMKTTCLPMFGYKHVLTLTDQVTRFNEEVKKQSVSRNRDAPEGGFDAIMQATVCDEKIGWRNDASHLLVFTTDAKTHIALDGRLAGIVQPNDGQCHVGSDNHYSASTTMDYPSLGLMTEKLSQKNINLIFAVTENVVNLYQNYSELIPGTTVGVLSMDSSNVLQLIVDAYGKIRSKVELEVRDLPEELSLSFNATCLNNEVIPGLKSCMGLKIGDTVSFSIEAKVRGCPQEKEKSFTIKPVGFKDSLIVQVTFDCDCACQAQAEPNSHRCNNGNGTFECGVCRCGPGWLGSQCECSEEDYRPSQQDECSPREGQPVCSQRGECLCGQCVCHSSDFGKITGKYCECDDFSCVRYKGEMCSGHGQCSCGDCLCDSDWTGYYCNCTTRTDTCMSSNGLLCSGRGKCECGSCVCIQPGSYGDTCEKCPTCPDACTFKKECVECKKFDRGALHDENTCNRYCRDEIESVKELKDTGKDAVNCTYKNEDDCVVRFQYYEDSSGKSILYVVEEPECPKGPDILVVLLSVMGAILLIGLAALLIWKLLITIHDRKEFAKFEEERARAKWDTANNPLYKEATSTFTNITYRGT

IC50 (M)* Estimated IC50 adjusted to the values by the method of Plow et al. | Compound
5e-07 M | N=C(N)NCCC[C@H](NC(=O)CCCC(=O)N[C@@H](CCCNC(=N)N)C(=O)NCC(=O)N[C@@H](CC(=O)O)C(=O)N[C@@H](Cc1ccccc1)C(=O)O)C(=O)NCC(=O)N[C@@H](CC(=O)O)C(=O)N[C@@H](Cc1ccccc1)C(=O)O [Example 13, Pda (RGDF--OH)2] (I: RGDF-OH / II: RGDF-OH; linker I:N-II:N via Glutaryl)
4.2e-07 M | N=C(N)NCCC[C@H](N)C(=O)NCC(=O)N[C@@H](CC(=O)O)C(=O)N[C@@H](Cc1ccccc1)C(=O)N1CCC[C@H]1C(=O)NCC(=O)Nc1cc(NC(=O)CNC(=O)[C@@H]2CCCN2C(=O)[C@H](Cc2ccccc2)NC(=O)[C@H](CC(=O)O)NC(=O)CNC(=O)[C@@H](N)CCCNC(=N)N)cc(C(N)=O)c1 [Example 2, (RGDFPG)2 Dab--NH2] (I: H-RGDFPG / II: H-RGDFPG; linker I:C-II:C via X1; N-terminus assumed)
3e-06 M | N=C(N)NCCC[C@H](NC(=O)CN)C(=O)NCC(=O)N[C@@H](CC(=O)O)C(=O)N[C@@H](CO)C(=O)NCC(=O)Nc1cccc(C(=O)NCC(=O)N[C@@H](CCCNC(=N)N)C(=O)NCC(=O)N[C@@H](CC(=O)O)C(=O)N[C@@H](Cc2ccccc2)C(N)=O)c1 [Example 26, GRGDSG--(m)Abz--GRGDF--NH2] (H-GRGDSG[3Abz]GRGDF-NH2)
3.1e-06 M | N=C(N)NCCC[C@H](NC(=O)CN)C(=O)NCC(=O)N[C@@H](CC(=O)O)C(=O)N[C@@H](Cc1ccccc1)C(=O)NCC(=O)Nc1ccccc1C(=O)NCC(=O)N[C@@H](CCCNC(=N)N)C(=O)NCC(=O)N[C@@H](CC(=O)O)C(=O)N[C@@H](Cc1ccccc1)C(N)=O [Example 22, GRGDFG-(o)Abz--GRGDF--NH2] (H-GRGDFG[2Abz]GRGDF-NH2)
1.5e-06 M | CC(C)[C@H](NC(=O)[C@H](CC(=O)O)NC(=O)CNC(=O)[C@H](CCCNC(=N)N)NC(=O)CN)C(=O)NCC(=O)Nc1cccc(C(=O)NCC(=O)N[C@@H](CCCNC(=N)N)C(=O)NCC(=O)N[C@@H](CC(=O)O)C(=O)N[C@@H](Cc2ccccc2)C(N)=O)c1 [Example 29, GRGDVG--(m)Abz--GRGDF--NH2] (H-GRGDVG[3Abz]GRGDF-NH2)
7.6e-08 M | CCCCCC(=O)N[C@@H](CCCNC(=N)N)C(=O)NCC(=O)N[C@@H](CC(=O)O)C(=O)N[C@@H](Cc1ccccc1)C(=O)NCCCC[C@H](NC(=O)[C@H](Cc1ccccc1)NC(=O)[C@H](CC(=O)O)NC(=O)CNC(=O)[C@H](CCCNC(=N)N)NC(=O)CCCCC)C(N)=O [Example 8, (HexRGDF)2 Lys--NH2]
1.7e-06 M | N=C(N)NCCC[C@H](NC(=O)CN)C(=O)NCC(=O)N[C@@H](CC(=O)O)C(=O)N[C@@H](CO)C(=O)NCC(=O)Nc1ccc(C(=O)NCC(=O)N[C@@H](CCCNC(=N)N)C(=O)NCC(=O)N[C@@H](CC(=O)O)C(=O)N[C@@H](Cc2ccccc2)C(N)=O)cc1 [Example 27, GRGDSG-(p)Abz--GRGDF--NH2] (H-GRGDSG[4Abz]GRGDF-NH2)
1.1e-06 M | N=C(N)NCCC[C@H](NC(=O)CN)C(=O)NCC(=O)N[C@@H](CC(=O)O)C(=O)N[C@@H](Cc1ccccc1)C(=O)NCC(=O)Nc1cc(NC(=O)CNC(=O)[C@H](Cc2ccccc2)NC(=O)[C@H](CC(=O)O)NC(=O)CNC(=O)[C@H](CCCNC(=N)N)NC(=O)CN)cc(C(=O)NCC(=O)N[C@@H](CCCNC(=N)N)C(=O)NCC(=O)N[C@@H](CC(=O)O)C(=O)N[C@@H](Cc2ccccc2)C(N)=O)c1 [Example 15, (GRGDFG)2 Dab--GRGDF--NH2]
4.4e-06 M | N=C(N)NCCC[C@H](NC(=O)CN)C(=O)NCC(=O)N[C@@H](CC(=O)O)C(=O)N[C@@H](Cc1ccccc1)C(=O)NCCC[C@H](NC(=O)[C@H](Cc1ccccc1)NC(=O)[C@H](CC(=O)O)NC(=O)CNC(=O)[C@H](CCCNC(=N)N)NC(=O)CN)C(N)=O [Example 5, (GRGDF)2 Orn--NH2]
2.1e-06 M | N=C(N)NCCC[C@H](NC(=O)CN)C(=O)NCC(=O)N[C@@H](CC(=O)O)C(=O)N[C@@H](Cc1ccccc1)C(=O)NCCC[C@H](NC(=O)[C@H](Cc1ccccc1)NC(=O)[C@H](CC(=O)O)NC(=O)CNC(=O)[C@H](CCCNC(=N)N)NC(=O)CN)C(=O)NCC(=O)N[C@@H](CCCNC(=N)N)C(=O)NCC(=O)N[C@@H](CC(=O)O)C(=O)N[C@@H](Cc1ccccc1)C(N)=O [Example 18, (GRGDF)2 Orn--GRGDF--NH2]
4.7e-07 M | N=C(N)NCCC[C@H](NC(=O)CCCCC(=O)N[C@@H](CCCNC(=N)N)C(=O)NCC(=O)N[C@@H](CC(=O)O)C(=O)N[C@@H](Cc1ccccc1)C(=O)O)C(=O)NCC(=O)N[C@@H](CC(=O)O)C(=O)N[C@@H](Cc1ccccc1)C(=O)O [Example 14, Bda(RGDF--OH)2] (I: RGDF-OH / II: RGDF-OH; linker I:N-II:N via Adipoyl)
1.7e-06 M | N=C(N)NCCC[C@H](NC(=O)CN)C(=O)NCC(=O)N[C@@H](CC(=O)O)C(=O)N[C@@H](Cc1ccccc1)C(=O)NCCCC[C@H](NC(=O)[C@H](Cc1ccccc1)NC(=O)[C@H](CC(=O)O)NC(=O)CNC(=O)[C@H](CCCNC(=N)N)NC(=O)CN)C(=O)NCC(=O)N[C@@H](CCCNC(=N)N)C(=O)NCC(=O)N[C@@H](CC(=O)O)C(=O)N[C@@H](Cc1ccccc1)C(N)=O [Example 17, (GRGDF)2 Lys--GRGDF--NH2]
3.1e-06 M | CC(C)[C@H](NC(=O)[C@H](CC(=O)O)NC(=O)CNC(=O)[C@H](CCCNC(=N)N)NC(=O)CN)C(=O)NCC(=O)Nc1ccccc1C(=O)NCC(=O)N[C@@H](CCCNC(=N)N)C(=O)NCC(=O)N[C@@H](CC(=O)O)C(=O)N[C@@H](Cc1ccccc1)C(N)=O [Example 28, GRGDVG--(o)Abz--GRGDF--NH2] (H-GRGDVG[2Abz]GRGDF-NH2)
7.2e-07 M | N=C(N)NCCC[C@H](NC(=O)C1CC(NC(=O)[C@H](Cc2ccccc2)NC(=O)[C@H](CC(=O)O)NC(=O)CNC(=O)[C@@H](N)CCCNC(=N)N)CC(NC(=O)[C@H](Cc2ccccc2)NC(=O)[C@H](CC(=O)O)NC(=O)CNC(=O)[C@@H](N)CCCNC(=N)N)C1)C(=O)NCC(=O)N[C@@H](CC(=O)O)C(=O)N[C@@H](Cc1ccccc1)C(=O)O (some centres unmarked) [Example 16, (RGDF)2 Dac--RGDF--OH]
1.2e-06 M | N=C(N)NCCC[C@H](N)C(=O)NCC(=O)N[C@@H](CC(=O)O)C(=O)N[C@@H](Cc1ccccc1)C(=O)NCCCC[C@H](NC(=O)[C@H](Cc1ccccc1)NC(=O)[C@H](CC(=O)O)NC(=O)CNC(=O)[C@@H](N)CCCNC(=N)N)C(N)=O [Example 3, (RGDF)2 Lys--NH2]

Compound | IC50 (M)* Estimated IC50 adjusted to the values by the method of Plow et al.
N=C(N)NCCC[C@H](NC(=O)c1ccccc1)C(=O)NCC(=O)N[C@@H](CC(=O)O)C(=O)N[C@@H](Cc1ccccc1)C(=O)NCCCC[C@H](NC(=O)[C@H](Cc1ccccc1)NC(=O)[C@H](CC(=O)O)NC(=O)CNC(=O)[C@H](CCCNC(=N)N)NC(=O)c1ccccc1)C(N)=O [Example 7, (BzRGDF)2 Lys--NH2] | 2.9e-07 M
N=C(N)NCCC[C@H](NC(=O)CN)C(=O)NCC(=O)N[C@@H](CC(=O)O)C(=O)N[C@@H](Cc1ccccc1)C(=O)NCC(=O)Nc1ccc(C(=O)NCC(=O)N[C@@H](CCCNC(=N)N)C(=O)NCC(=O)N[C@@H](CC(=O)O)C(=O)N[C@@H](Cc2ccccc2)C(=O)O)cc1 [Example 21, GRGDFG--(p)Abz--GRGDF--OH] (H-GRGDFG[4Abz]GRGDF-OH) | 1.2e-06 M
